For one data set, the species on record is Mus musculus. As to the kind of experiment: Toxicity in mouse assessed as body weight loss. The class given is organism-based. The conditions noted are these: in vivo.
The nature of data set [1]: Toxicity in patients with solid malignancies assessed as incidence of anemia. Conditions: human, in vivo.
The nature of data set [2]: Toxicity in patients with solid malignancies assessed as incidence of fatigue. Conditions: human, in vivo.
A short description of data set [3]: Toxicity in patients with solid malignancies assessed as incidence of transaminitis. Conditions: human, in vivo.
Data set [4] is described as follows: Toxicity in patients with solid malignancies assessed as incidence of thrombocytopenia. The conditions noted are these: human, in vivo.
Data set [5] has as its system Ebolavirus. The data set can be described thus: Antiviral activity against Ebolavirus assessed as reduction in viral replication. The data set is classed as functional. Conditions: Orthoebolavirus.
A short description of data set [6]: Half life in rhesus monkey at 10 mg/kg, iv. Conditions: in vivo. The class given is ADME, organism-based, Macaca mulatta.
Data set [7] can be described thus: Drug metabolism in PBMC (unknown origin) assessed as half life for active triphosphate formation. The data set is classed as ADME, cell-based.
Data set [8] has as its system Ebolavirus. The data set can be described thus: Antiviral activity against Ebolavirus infected in PBMC (unknown origin) assessed as reduction in viral replication after 24 hrs. The data set is classed as functional.
Data set [9] has as its system Ebolavirus. The data set can be described thus: Antiviral activity against Ebolavirus infected in rhesus monkey assessed as protection against viral disease administered intravenously as once daily regimen. The class given is functional.
A short description of data set [10]: Tmax in human at 0.025 to 2 mg/kg dosed as single and multiple doses. The conditions noted are these: in vivo. The class given is ADME, organism-based.
A short description of data set [11]: Half life in human at 0.025 mg/kg dosed as single and multiple doses. The class given is ADME, organism-based. Conditions: in vivo.
The nature of data set [12]: Half life in human at 1.5 mg/kg dosed as single and multiple doses. The class given is ADME, organism-based. Conditions: in vivo.

Bounds are passed on as bounds.

With `C[C@H](NP(=O)(OC[C@H]1O[C@@H](n2ccc(N)nc2=O)C(F)(F)[C@@H]1O)Oc1ccccc1)C(=O)OCc1ccccc1` (some centres undefined) [FOSGEMCITABINE PALABENAMIDE], the Activity in the data set filed under Mus musculus is below 2%; in [1], 67%; in [2] it was 67%; in [3] it was 64%; in data set [4], 53%.
`CCC(CC)OC(=O)[C@H](C)N[P@@](=O)(OC[C@H]1O[C@@](C#N)(c2ccc3c(N)ncnn23)[C@H](O)[C@@H]1O)Oc1ccccc1`: the EC50 in the data set with Ebolavirus [5] was 60 to 140 nM. The same compound gave a half-life in [6] of 0.39 h. For the same compound, in data set [7], the t1/2 stood at 14 h. Besides, the “inhibition (INH)” value in the data set on Ebolavirus [8] is given as above 50%. For the same compound, the Activity in the data set on Ebolavirus [9] stood at 100%.
Take `CCCCCCCCCCCCCCCCOCCCOP(=O)(O)CO[C@H](CO)Cn1ccc(N)nc1=O` [BRINCIDOFOVIR]: the Tmax in data set [10] lay within 7 to 15 h. Also, the half-life was 6.15 h in data set [11] and 32.7 h in [12].
Consider `N#C[C@@]1(c2ccc3c(N)ncnn23)O[C@H](CO)[C@@H](O)[C@H]1O` [GS-441524], for which the EC50 in the data set with Ebolavirus [5] lay in the range of 770 to 20000 nM.

Values taken from ChEMBL document CHEMBL3860042, “Nucleoside Phosphate and Phosphonate Prodrug Clinical Candidates” (J Med Chem, 2016).
